According to patent publication US6706664B1, “Benzoxazole compounds, process for the preparation thereof and herbicides” (UBE Industries, Ltd., priority 1999, dated 2004):

How the values were obtained:
Parameters in all cases: key: 0: normal development; 1: Less damaged; 2: Slightly damaged; 3: Moderately damaged; 4: Severely damaged; 5: All killed
[1] = test system: green foxtail; assay: Soil treatment test for upland field; assay type: in vivo, Setaria viridis; conditions: 500 g/ha, glass house 25° C., 3 weeks
In short: (§1)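 Visual 0–5 damage rating recorded 3 weeks after a pre-emergence soil spray of 500 g/ha on seeded Ube alluvial soil, with plants held in a glasshouse near 25° C.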

[2] = test system: annual bluegrass; assay: Foliar spread test for upland field; assay type: in vivo, Poa annua; conditions: foliar spray 500 ppm, 3 weeks, rank vs non-treated
Description: (§2) (0: normal development, 1: Less damaged, 2: Slightly damaged, 3: Moderately damaged, 4: Severely damaged, 5: All killed).
(§3) Wagner pots, each having an area of 1/5000 are, were packed with volcanic ash soil and then each seed of corn, soybean, cotton, wheat, solgum, sugar beat, Large crabgrass, barnyardgrass, green foxtail, blackgrass, annual bluegrass, common lambsquartes, livid amaranth, velvetleaf and morning glory was planted, covered with soil and grown in a glass house at an average temperature of […] for about 2 weeks.
(§4) Each wettable powder of the desired compounds (I) shown in Table 1 prepared in accordance with Example 2 was diluted to 500 ppm with water containing a surfactant (0.5%) and then uniformly sprayed on the above respective plants.
(§5) After these plants were controlled in a glass house at an average temperature of 25° C. for 3 weeks, the herbicidal effects thereof were investigated.
(§6) The herbicidal effects were evaluated according to the evaluation method described in the above (1).

[3] = test system: livid amaranth; assay: Foliar spread test for upland field; assay type: in vivo, Amaranthus lividus; conditions: foliar spray 500 ppm, 3 weeks, rank vs non-treated
In short: (§7)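 Two-week-old glasshouse seedlings on volcanic ash soil were treated by foliar spray at 500 ppm, with 0.5% surfactant in the diluent. Effects were graded visually after three weeks, from 0 for no injury to 5 for complete kill.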

[4] = test system: annual bluegrass; assay: Soil treatment test for upland field; assay type: in vivo, Poa annua; conditions: 500 g/ha, glass house 25° C., 3 weeks
In short: as §1

[5] = test system: morning glory; assay: Foliar spread test for upland field; assay type: in vivo, Ipomoea spps.; conditions: foliar spray 500 ppm, 3 weeks, rank vs non-treated
Description: as §2, §3, §4, §5, §6

[6] = test system: Large crabgrass; assay: Soil treatment test for upland field; assay type: in vivo, Digitaria adscendens; conditions: 500 g/ha, glass house 25° C., 3 weeks
In short: as §1

[7] = test system: wheat; assay: Soil treatment test for upland field; assay type: in vivo; conditions: 500 g/ha, glass house 25° C., 3 weeks
In short: as §1

[8] = test system: sugar beat; assay: Soil treatment test for upland field; assay type: in vivo; conditions: 500 g/ha, glass house 25° C., 3 weeks
In short: as §1

[9] = test system: corn; assay: Soil treatment test for upland field; assay type: in vivo; conditions: 500 g/ha, glass house 25° C., 3 weeks
In short: as §1

[10] = test system: soybean; assay: Soil treatment test for upland field; assay type: in vivo; conditions: 500 g/ha, glass house 25° C., 3 weeks
In short: as §1

[11] = test system: solgum; assay: Soil treatment test for upland field; assay type: in vivo; conditions: 500 g/ha, glass house 25° C., 3 weeks
In short: as §1

[12] = test system: green foxtail; assay: Foliar spread test for upland field; assay type: in vivo, Setaria viridis; conditions: foliar spray 500 ppm, 3 weeks, rank vs non-treated
Description: as §2, §3, §4, §5, §6

[13] = test system: blackgrass; assay: Foliar spread test for upland field; assay type: in vivo, Alopecurus aegualis; conditions: foliar spray 500 ppm, 3 weeks, rank vs non-treated
Description: as §2, §3, §4, §5, §6

[14] = test system: velvetleaf; assay: Foliar spread test for upland field; assay type: in vivo, Abutilon theophrasti; conditions: foliar spray 500 ppm, 3 weeks, rank vs non-treated
In short: as §7

[15] = test system: common lambsquartes; assay: Foliar spread test for upland field; assay type: in vivo, Chenopodium album; conditions: foliar spray 500 ppm, 3 weeks, rank vs non-treated
In short: as §7

[16] = test system: Large crabgrass; assay: Foliar spread test for upland field; assay type: in vivo, Digitaria adscendens; conditions: foliar spray 500 ppm, 3 weeks, rank vs non-treated
Description: as §2, §3, §4, §5, §6

[17] = test system: wheat; assay: Foliar spread test for upland field; assay type: in vivo; conditions: foliar spray 500 ppm, 3 weeks, rank vs non-treated
In short: as §7

[18] = test system: sugar beat; assay: Foliar spread test for upland field; assay type: in vivo; conditions: foliar spray 500 ppm, 3 weeks, rank vs non-treated
In short: as §7

[19] = test system: corn; assay: Foliar spread test for upland field; assay type: in vivo; conditions: foliar spray 500 ppm, 3 weeks, rank vs non-treated
In short: as §7

[20] = test system: soybean; assay: Foliar spread test for upland field; assay type: in vivo; conditions: foliar spray 500 ppm, 3 weeks, rank vs non-treated
In short: as §7

[21] = test system: cotton; assay: Foliar spread test for upland field; assay type: in vivo; conditions: foliar spray 500 ppm, 3 weeks, rank vs non-treated
In short: as §7

[22] = test system: solgum; assay: Foliar spread test for upland field; assay type: in vivo; conditions: foliar spray 500 ppm, 3 weeks, rank vs non-treated
In short: as §7

[23] = test system: common lambsquartes; assay: Soil treatment test for upland field; assay type: in vivo, Chenopodium album; conditions: 500 g/ha, glass house 25° C., 3 weeks
In short: as §1

[24] = test system: livid amaranth; assay: Soil treatment test for upland field; assay type: in vivo, Amaranthus lividus; conditions: 500 g/ha, glass house 25° C., 3 weeks
In short: as §1

[25] = test system: barnyardgrass; assay: Soil treatment test for upland field; assay type: in vivo, Echinochloa crusgalli; conditions: 500 g/ha, glass house 25° C., 3 weeks
In short: as §1

[26] = test system: barnyardgrass; assay: Foliar spread test for upland field; assay type: in vivo, Echinochloa crusgalli; conditions: foliar spray 500 ppm, 3 weeks, rank vs non-treated
Description: as §2, §3, §4, §5, §6

[27] = test system: velvetleaf; assay: Soil treatment test for upland field; assay type: in vivo, Abutilon theophrasti; conditions: 500 g/ha, glass house 25° C., 3 weeks
In short: as §1

[28] = test system: blackgrass; assay: Soil treatment test for upland field; assay type: in vivo, Alopecurus aegualis; conditions: 500 g/ha, glass house 25° C., 3 weeks
In short: as §1

[29] = test system: cotton; assay: Soil treatment test for upland field; assay type: in vivo; conditions: 500 g/ha, glass house 25° C., 3 weeks
In short: as §1

Row | SMILES | Effects Green foxtail [1] | Effects Annual bluegrass [2] | Effects Livid amaranth [3] | Effects Annual bluegrass [4] | Effects Morning glory [5] | Effects Large crabgrass [6] | Effects Wheat [7] | Effects Sugar beat [8] | Effects Soybean [10] | Effects Solgum [11] | Effects Green foxtail [12] | Effects Blackgrass [13] | Effects Velvetleaf [14] | Effects Common lambsquarters [15] | Effects Large crabgrass [16] | Effects Wheat [17] | Effects Sugar beat [18] | Effects Corn [19] | Effects Soybean [20] | Effects Solgum [22] | also measured
1 | CC(Oc1cccc(C(F)(F)F)c1)c1nc2ccc(C(F)(F)F)cc2o1 (stereo not drawn) [Compound 86] | 4 | 1 | 3 | 1 | 3 | 5 | 0 | 2 | 0 | 0 | 2 | 1 | 1 | 2 | 2 | 1 | 2 | 1 | 2 | 0 | Effects Corn [9]: 0; Effects Cotton [21]: 1; Effects Common lambsquarters [23]: 1; Effects Livid amaranth [24]: 5; Effects Barnyardgrass [25]: 3
2 | CCC(Oc1cccc(C(F)(F)F)c1)c1nc2cc([N+](=O)[O-])ccc2o1 (stereo not drawn) [Compound 178] | 5 | 3 | 4 | 5 | – | 5 | 0 | 1 | 0 | 0 | 2 | 2 | 3 | 4 | 3 | 2 | 3 | 2 | 3 | 2 | Effects Barnyardgrass [26]: 2; Effects Velvetleaf [27]: 1; Effects Blackgrass [28]: 3; Effects Corn [9]: 0; Effects Cotton [29]: 0; Effects Cotton [21]: 3; Effects Common lambsquarters [23]: 4; Effects Livid amaranth [24]: 5; Effects Barnyardgrass [25]: 4
3 | CCC(Oc1ccc(Cl)c(C(F)(F)F)c1)c1nc2cc(Cl)ccc2o1 (stereo not drawn) [Compound 438] | – | 3 | 5 | – | 4 | – | – | – | – | – | 3 | 2 | 3 | 3 | 3 | 2 | 5 | 2 | 4 | 2 | Effects Barnyardgrass [26]: 1; Effects Cotton [21]: 3
4 | CCC(Oc1cccc(S(C)(=O)=O)c1)c1nc2cc(S(C)(=O)=O)ccc2o1 (stereo not drawn) [Compound 513] | 5 | 5 | 5 | 5 | 3 | 5 | 2 | 5 | 2 | 2 | 5 | 5 | 5 | 5 | 5 | – | 5 | – | – | 3 | Effects Barnyardgrass [26]: 3; Effects Velvetleaf [27]: 5; Effects Blackgrass [28]: 3; Effects Cotton [29]: 2; Effects Common lambsquarters [23]: 5; Effects Livid amaranth [24]: 5; Effects Barnyardgrass [25]: 4
5 | CCC(Oc1ccc(F)c(C(F)(F)F)c1)c1nc2cc(NC(=O)C(F)(F)F)ccc2o1 (stereo not drawn) [Compound 518] | – | – | 2 | – | – | – | – | – | – | – | 5 | 2 | 3 | 2 | 2 | 0 | 5 | 0 | 0 | 0 | Effects Cotton [21]: 0
6 | CCC(Oc1ccc(Cl)c(C(F)(F)F)c1)c1nc2cc(C#N)c(Cl)cc2o1 (stereo not drawn) [Compound 534] | 5 | 4 | 5 | 5 | 5 | 5 | 1 | 5 | 2 | 1 | – | 3 | 5 | 4 | 2 | 2 | 5 | 2 | – | 2 | Effects Barnyardgrass [26]: 2; Effects Velvetleaf [27]: 5; Effects Blackgrass [28]: 4; Effects Corn [9]: 2; Effects Common lambsquarters [23]: 5; Effects Livid amaranth [24]: 5; Effects Barnyardgrass [25]: 4
